Assay [1] addresses T1, short form of the GPR120 receptor (GPR120S) (Homo sapiens, UniProt Q5NUL3).
T1 construct: host or cells: PathHunter CHO-K1 GPR120S β-Arrestin Cell Line
Put plainly: Human GPR120 DiscoveRx PathHunter Beta-Arrestin assay, Procedure β-arrestin B. It counts as cell-based. As to conditions: PathHunter CHO-K1 GPR120S β-Arrestin cell line, 5000 cells/well, read-out: hGPR120 β-arrestin B EC50. From the text: The binding of an agonist (medium/long chain fatty acids or small molecule agonists) to the G-protein-coupled receptor GPR120 activates phospholipase C, leading to release of intracellular Ca^+2 through the generation of inositol 1,4,5-trisphosphate (InsP3 or IP3). GPR120 activation can also trigger intracellular signaling via recruitment of Beta-Arrestin. In the present method, agonist-induced activation of the human GPR120 receptor is monitored through the use of PathHunter CHO-K1 GPR120 Beta-Arrestin Cell Line engineered by DiscoveRx, as detailed below. The cell lines are designed to co-express both the ProLink/Enzyme Donor (PK)-tagged GPCR and the Enzyme […] (EA)-tagged Beta-Arrestin fusion proteins. Upon GPR120 receptor stimulation/activation, the EA-tagged Beta-Arrestin portion is translocated to the tagged receptor, where the two enzyme fragments are brought within close proximity. Under these conditions, these fragments can interact and form an active Beta-gal enzyme complex through Enzyme Fragment Complementation (EFC). This active Beta-gal complex can enzymatically hydrolyse the substrate to produce a detectable light signal; therefore, activation as a function of agonist concentration can be expressed as an EC50 value to determine relative compound activities. This in vitro assay therefore serves to assess compound agonist activity of the GPR120. Procedure β-Arrestin A: In Procedure β-arrestin A, the cell used were PathHunter CHO-K1 GPR120 β-Arrestin Cell Line, expressing the long form of human GPR120 (Genbank accession number NM 181745), with 3000 cells per well. Procedure β-Arrestin B: In Procedure 3-arrestin B the cells used were PathHunter CHO-K1 GPR120S β-Arrestin Cell Line, expressing the short form of the GPR120 receptor (Accession #NM_181745), with 5000 cells/well. Assay Procedure:
The selected CHO-K1 GPR120 β-Arrestin cells were cultured in Ham's F12 media supplemented with 10% fetal bovine serum (FBS), 1% Glutamine, lx p/s, 800 μg/mL G418 and 300 μg/mL Hygromycin B (for selection). Cell stocks were maintained and grown in a sub-confluent state using standard cell culture procedures. The day before the experiment, the cells were harvested with non-enzymatic cell dissociation buffer and re-suspended in complete growth media at the desired concentration. A Corning 384-plate was then seeded with the proper number of cells in a volume of 25 μL, per well. The seeded plates were incubated overnight at 37° C.
On the day of the experiment, the Assay Buffer containing (a) HBSS with Ca^++ and Mg^++, (b) 20 mM HEPES, and (c) 0.1% BSA stabilizer (pH 7.4) was prepared. The growth medium was gently removed from the cell plates and 20 μL of Assay Buffer added to each well. The plate was then incubated at 37° C. for 60 min. Test compounds were serially diluted in Assay Buffer to desired concentrations (more particularly to one or more of the following μM concentrations: 25, 12.5, 6.25, 3.125, 1.5625, 0.78125, 0.390625, 0.1953125, 0.09765625, 0.048828125, 0.024414063, 0.012207031). Five μL of compound dilution was then added to each well and the plate incubated at 37° C. for 90 min. The detection reagents were prepared according to the manufacture's instruction. Twelve μL of the detection reagents were added to each well and the plate incubated at room temperature for 60 min.
The plates were read on an EnVision instrument, using Protocol name: Luminescence, Plate type: 384 Costar, Measurement height: 3 mm, Measurement time: 1 s, Aperture: 384 Plate aperture. The % activity relative to the positive control was calculated using the following equation:
The % Activity values were plotted versus the concentration of test compound and fitted to a sigmoidal dose-response curve with a Hill slope=1 (fixed value) using nonlinear regression with GraphPad Prism 5.0 to calculate the EC50 values. […]

Assay [2] concerns the target T2, Human GPR120 short form (Homo sapiens, UniProt Q5NUL3).
T2 construct: expressed in transfected cells
T2 sequence (Q5NUL3 1-361): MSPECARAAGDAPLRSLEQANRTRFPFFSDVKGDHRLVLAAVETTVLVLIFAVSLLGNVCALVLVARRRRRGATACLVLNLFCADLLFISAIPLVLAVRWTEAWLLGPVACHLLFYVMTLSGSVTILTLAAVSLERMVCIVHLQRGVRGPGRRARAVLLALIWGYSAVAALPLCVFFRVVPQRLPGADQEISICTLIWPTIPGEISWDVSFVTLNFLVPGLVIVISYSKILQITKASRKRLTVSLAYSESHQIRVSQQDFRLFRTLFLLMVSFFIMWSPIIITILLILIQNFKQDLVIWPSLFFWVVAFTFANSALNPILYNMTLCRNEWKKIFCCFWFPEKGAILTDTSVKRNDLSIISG
Put plainly: Human GPR120 calcium flux assay (FLIPR), Procedure Calcium A. The format is cell-based. Conditions: HEK-293 cells expressing human GPR120 short form, 2500 cells/well; read-out: GPR120 Ca2+ Assay A EC50. Summed up: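 HEK293 cells stably expressing the short isoform (NM_001195755.1), 2500/well, starved 1 h, then loaded with Fluo-4 NW plus probenecid (30 min 37 °C, 15 min RT). Compound solutions 0.012–100 μM, 0.2% DMSO final; FLIPR read 300 s after addition. EC50 from Fmax−Fmin fitted to variable-slope sigmoid (Hill <2).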
Background: A change in cytosolic calcium serves as a functional read-out for many receptors and channels.

pEC50: −log10 of the molar value.

For orientation: pEC50 means the EC50 on a negative log10 scale, so that one unit is a factor of ten.

T1 sequence (P32121 whole entry partner, one chain of several): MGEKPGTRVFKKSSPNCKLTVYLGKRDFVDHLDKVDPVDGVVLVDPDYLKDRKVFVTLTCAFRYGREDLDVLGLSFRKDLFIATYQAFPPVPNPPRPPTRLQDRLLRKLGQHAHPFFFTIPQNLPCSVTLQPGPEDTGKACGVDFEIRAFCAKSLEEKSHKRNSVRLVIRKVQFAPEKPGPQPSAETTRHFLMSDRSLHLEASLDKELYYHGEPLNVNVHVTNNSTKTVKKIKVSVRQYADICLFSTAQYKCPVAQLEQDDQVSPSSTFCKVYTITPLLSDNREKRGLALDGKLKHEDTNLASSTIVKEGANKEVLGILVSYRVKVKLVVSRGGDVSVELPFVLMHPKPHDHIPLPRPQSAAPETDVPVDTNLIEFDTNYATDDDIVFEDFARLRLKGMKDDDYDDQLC

Turning to “3-(4-((3-(4-ethylphenyl)-5-(trifluoromethyl)isothiazol-4-yl)methoxy)-2,3,5-trifluorophenyl)propan-1-ol [Cpd 238]”, the negative-log EC50 (pEC50) in assay [1] was 6.51; in assay [2] it was 6.97.

Take `CC(Cc1ccc(OCc2c(-c3ccc(Cl)cc3)nsc2C(F)(F)F)cc1)C(=O)O` (stereo not drawn) [Cpd 195, 3-(4-[[3-(4-chlorophenyl)-5-(trifluoromethyl)-1,2-thiazol-4-yl]methoxy]phenyl)-2-methylpropanoic acid]: the figures for the pEC50 in assay [1] and in assay [2] were 6.51 and 6.44, respectively.

Take `Cc1c(CCC(=O)O)ccc(OCc2c(-c3ccc(F)c(F)c3)nsc2C(F)(F)F)c1C` [Cpd 143, 3-(4-((3-(3,4-difluorophenyl)-5-(trifluoromethyl)isothiazol-4-yl)methoxy)-2,3-dimethylphenyl)propanoic acid]: the values for the negative-log EC50 (pEC50) in assay [1] and in assay [2] were 6.43 and 6.81, respectively.

For the compound “3-(4-[[3-(4-ethylphenyl)-5-methoxy-1,2-thiazol-4-yl]methoxy]-2,3-dimethylphenyl)propanoic acid [Cpd 228]”, the negative logarithm of the EC50 (pEC50) was 6.93 in assay [1] and 7.05 in assay [2].

With `CCc1ccc(-c2nsc(C(F)(F)F)c2COc2c(F)cc(CC(C)C(=O)O)cc2F)c(F)c1` (stereo not drawn) [Cpd 188, 3-(4-((3-(4-ethyl-2-fluorophenyl)-5-(trifluoromethyl)isothiazol-4-yl)methoxy)-3,5-difluorophenyl)-2-methylpropanoic acid], the pEC50 is 6.82 in assay [1] and 6.51 in assay [2].

For the compound `Cc1ccc(-c2snc(C(F)(F)F)c2COc2ccc(CCC(=O)O)c(C)c2C)c(F)c1` [Cpd 155, 3-(4-[[5-(2-fluoro-4-methylphenyl)-3-(trifluoromethyl)-1,2-thiazol-4-yl]methoxy]-2,3-dimethylphenyl)propanoic acid], the negative logarithm of the EC50 (pEC50) was 6.14 in assay [1] and 6.74 in assay [2].

For `O=C(O)CCc1cc(F)c(OCc2c(-c3ccccc3)nsc2C(F)(F)F)c(F)c1` [Cpd 145, 3-(3,5-difluoro-4-((3-phenyl-5-(trifluoromethyl)isothiazol-4-yl)methoxy)phenyl)propanoic acid], the pEC50 in assay [1] is 6.88; in assay [2] it was 6.80.

Turning to `O=C(O)CCc1ccc(OCc2c(C(F)(F)F)nsc2-c2ccc(Cl)cc2)cc1OC(F)(F)F` [Cpd 159, 3-(4-[[5-(4-chlorophenyl)-3-(trifluoromethyl)-1,2-thiazol-4-yl]methoxy]-2-(trifluoromethoxy)phenyl) propanoic acid], the results for the pEC50 in assay [1] and in assay [2] were 6.38 and 6.70, respectively.

In the case of `CCc1ccc(-c2nsc(C(F)(F)F)c2COc2c(F)cc(CC(C)C(=O)O)cc2F)cc1F` (stereo not drawn) [Cpd 212, 3-(4-((3-(4-ethyl-3-fluorophenyl)-5-(trifluoromethyl)isothiazol-4-yl)methoxy)-3,5-difluorophenyl)-2-methylpropanoic acid], the negative-log EC50 (pEC50) in assay [1] is 7.13; in assay [2] it was 6.22.

For `O=C(O)CCc1ccc(OCc2c(C(F)(F)F)nsc2-c2ccc(Cl)cc2)cc1Cl` [Cpd 208, 3-(2-chloro-4-[[5-(4-chlorophenyl)-3-(trifluoromethyl)-1,2-thiazol-4-yl]methoxy]phenyl)propanoic acid], the figures for the pEC50 in assay [1] and in assay [2] were 6.26 and 6.24, respectively.

For the compound `COc1cc(F)c(-c2nsc(C(F)(F)F)c2COc2ccc(CCC(=O)O)c(C)c2C)c(F)c1` [Cpd 229, 3-(4-[[3-(2,6-difluoro-4-methoxyphenyl)-5-(trifluoromethyl)-1,2-thiazol-4-yl]methoxy]-2,3-dimethylphenyl)propanoic acid], the negative-log EC50 (pEC50) is 5.74 in assay [1] and 6.03 in assay [2].

For the compound `COc1ccc(-c2nsc(C(F)(F)F)c2COc2c(F)cc(CCC(=O)O)cc2F)c(F)c1` [Cpd 151, 3-(3,5-difluoro-4-[[3-(2-fluoro-4-methoxyphenyl)-5-(trifluoromethyl)-1,2-thiazol-4-yl]methoxy]phenyl)propanoic acid], the pEC50 in assay [1] was 7.07; in assay [2] it was 6.77.

Values taken from patent US9067898B1, “Isothiazole derivatives as GPR120 agonists for the treatment of type II diabetes” (Janssen Pharmaceutica NV, priority 2014, dated 2015).
